Values of other authors, collected in US5476644A, “Cyclic triamine chelating agents” (Sterling Winthrop Inc., priority 1994, dated 1995).

Settings: background statement; cited from earlier work

[Gd] [free form of Gd, gadolinium]
toxicity of the free form: quite toxic
